For one assay, the target named is JNK3 (Homo sapiens (Human), UniProt P53779). Kind of assay: JNK3 TR-FRET kinase assay (Example 14). It counts as biochemical. Particulars: procedures of Example 14 (TR-FRET). An outline of the steps:
(§1)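 Two TR-FRET formats were used for each JNK isoform. In the direct one, preactivated aJNK phosphorylated EPIW-1 at about 1 mM final ATP (RT, 15 min). Both were EDTA-quenched and read by HTRF.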
On the technique in general: TR-FRET usually uses a lanthanide donor and a delayed reading to cut background.

Another assay has as its target JNK1 (Homo sapiens (Human), UniProt P45983). As to the kind of experiment: JNK1 TR-FRET kinase assay (Example 14). The class given is biochemical. Particulars: procedures of Example 14 (TR-FRET). An outline of the steps:
as §1

For the next assay, the target named is JNK2 (Homo sapiens (Human), UniProt P45984). Kind of assay: JNK2 TR-FRET kinase assay (Example 14). It counts as biochemical. Particulars: procedures of Example 14 (TR-FRET). In short, it runs like this:
as §1

Assay [1] relates to phosphorylated c-jun (p-cjun). As to the kind of experiment: Inhibition of kainic acid induced phospho-cJun upregulation in mice hippocampi. The class given is in vivo. The procedure: Female, FVB/N mice (Taconic) were treated by oral gavage (PO) with one 300 mg/kg dose of N-(4-chloro-3-(1H-1,2,4-triazol-5-yl)thiophen-2-yl)-2-(isoquinolin-5-yl)acetamide or vehicle (0.9% saline) at a 5 ml/kg dose volume. Control animals were dosed with vehicle. Thirty minutes later animals were treated interperitoneally with 25 mg/kg of kainic acid or saline at a 10 ml/kg dose volume. Kainic acid was formulated in 0.9% saline. Four hours after kainic acid administration animals were euthanized by carbon dioxide and were transcardially perfused with 0.9% saline. Brains were removed, and separated into left and right hemispheres. The hippocampus was dissected from the right hemisphere, frozen on dry ice and kept at −80° C. until used for quantitation of p-cjun levels.
Preweighed hippocampus tissues were homogenized in cold cell extraction buffer (CEB) containing 1% Triton X-100, 0.1% SDS, 0.5% deoxycholate, 20 mM Na4P2O7, 2 mM Na3VO4, 0.1% SDS and protease inhibitors (PI, 2 mg/mL aprotinin and 1 mg/mL leupeptin) at a ratio of 9:1 CEB to wet tissue weight. Homogenized samples were analyzed using PathScan Phospho-c-Jun (Ser63) Sandwich ELISA Kit II from Cell Signaling Technology. Samples were diluted 1:10 in sample diluent provided in the kit. An 8-point standard curve was prepared by diluting a 10 ng/mL phos-c-Jun standard 1:3 in 10% CEB/PI in sample diluent. Samples and standards were added at 100 μL per well to prewetted ELISA plates which contain a phos-c-jun (ser63)-specific rabbit monoclonal capture antibody and incubated overnight at 4° C. The plate was then allowed to warm to room temperature and washed three times using TBS+0.05% Tween 20 (TTBS). To each well were added 100 μL of a mouse monoclonal c-Jun detection antibody and the plate was incubated at 37° C. for 1 hour. The plate was washed three times in TTBS, then 100 μL per well of an anti-mouse IgG HRP-linked antibody was added. […] The colorimetric reaction was read using a Molecular Devices Spectramax plate reader and sample data was calculated from the standard curve fit to a 4-parameter function.

Structures are written as SMILES.

Chain of JNK3 (P53779 whole entry, species assumed, canonical isoform): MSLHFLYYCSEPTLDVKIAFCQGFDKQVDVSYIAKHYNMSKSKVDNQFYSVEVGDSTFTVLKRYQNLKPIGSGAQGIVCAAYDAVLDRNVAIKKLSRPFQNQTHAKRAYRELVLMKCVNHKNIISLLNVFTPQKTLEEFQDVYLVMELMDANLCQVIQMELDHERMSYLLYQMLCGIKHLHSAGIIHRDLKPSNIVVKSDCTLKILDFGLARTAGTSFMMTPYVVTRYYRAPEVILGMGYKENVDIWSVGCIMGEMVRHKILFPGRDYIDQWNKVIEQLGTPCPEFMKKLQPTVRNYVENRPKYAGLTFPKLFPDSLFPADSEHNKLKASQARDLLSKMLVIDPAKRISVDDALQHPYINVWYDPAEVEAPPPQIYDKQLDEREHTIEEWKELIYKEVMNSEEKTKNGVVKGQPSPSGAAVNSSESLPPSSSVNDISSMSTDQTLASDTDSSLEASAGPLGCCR
Chain of JNK1 (P45983 other isoform, or with tags, fused parts or gaps isoform P45983-2, species assumed): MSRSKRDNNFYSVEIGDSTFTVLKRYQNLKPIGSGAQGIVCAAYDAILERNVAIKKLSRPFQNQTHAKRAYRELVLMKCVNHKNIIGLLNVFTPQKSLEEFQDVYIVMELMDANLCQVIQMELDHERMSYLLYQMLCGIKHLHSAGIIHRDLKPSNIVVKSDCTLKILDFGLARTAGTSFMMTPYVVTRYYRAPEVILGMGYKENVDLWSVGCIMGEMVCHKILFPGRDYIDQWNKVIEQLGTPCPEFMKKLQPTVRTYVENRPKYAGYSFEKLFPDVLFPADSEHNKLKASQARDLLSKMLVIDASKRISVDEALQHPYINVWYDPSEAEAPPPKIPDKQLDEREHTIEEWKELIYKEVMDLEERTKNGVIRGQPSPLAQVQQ
Chain of JNK2 (P45984 whole entry, species assumed): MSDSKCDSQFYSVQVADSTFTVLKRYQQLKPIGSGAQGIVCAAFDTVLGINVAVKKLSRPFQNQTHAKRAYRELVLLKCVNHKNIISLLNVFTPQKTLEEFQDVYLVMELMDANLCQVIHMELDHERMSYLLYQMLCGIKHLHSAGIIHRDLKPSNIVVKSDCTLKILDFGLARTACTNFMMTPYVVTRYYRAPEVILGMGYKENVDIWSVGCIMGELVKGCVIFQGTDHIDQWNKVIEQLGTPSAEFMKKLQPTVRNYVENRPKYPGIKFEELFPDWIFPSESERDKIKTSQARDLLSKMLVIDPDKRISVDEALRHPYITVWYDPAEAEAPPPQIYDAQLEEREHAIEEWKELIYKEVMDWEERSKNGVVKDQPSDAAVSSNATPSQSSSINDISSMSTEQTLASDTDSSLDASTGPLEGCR

As usually defined, the IC50 is the concentration at which inhibition is half-maximal. A higher IC50 goes with weaker potency in that assay. For the compound `O=C(Cc1cccc2cnccc12)Nc1scc(Cl)c1-c1ncn[nH]1` [N-(4-chloro-3-(1H-1,2,4-triazol-5-yl)thiophen-2-yl)-2-(isoquinolin-5-yl)acetamide], the IC50 against JNK3, at JNK1 and at JNK2 was less than 100 nM throughout. Moreover, the “reduction of p-cjun in the hippocampus” value in assay [1] (FVB mice, 300 mg/kg, 4 hours after treatment with kainic acid, statistically significant (unpaired t-test)) turned out to be 51%. In addition, the “p-cJun Mean” value in assay [1] (female FVB/N mice, 300 mg/kg PO 30 min before 25 mg/kg kainic acid i.p., hippocampus 4 h after kainic acid) came to 0.927 ng/mL. For the same compound, in assay [1] (female FVB/N mice, 300 mg/kg PO, hippocampus 4 h after kainic acid, relative to kainic acid + vehicle group), the “p-cJun % of Vehicle” value was 49.2%.

Regarding `O=C(CN1C(=O)CCc2ccccc21)Nc1ccsc1-c1cscn1` [2-(2-oxo-3,4-dihydroquinolin-1(2H)-yl)-N-(2-(thiazol-4-yl)thiophen-3-yl)acetamide], the IC50 at JNK3, against JNK1 and against JNK2 was 100 to 10000 nM each time.

For the compound `Cn1cnc(-c2c(Cl)csc2NC(=O)Cn2c(=O)ccc3nc(C(F)(F)F)ccc32)n1` [N-(4-chloro-3-(1-methyl-1H-1,2,4-triazol-3-yl)thiophen-2-yl)-2-(2-oxo-6-(trifluoromethyl)-1,5-naphthyridin-1(2H)-yl)acetamide], the IC50 against JNK3, against JNK1 and at JNK2 was less than 100 nM in each case.

Consider `COc1ccc(CC(=O)Nc2ccsc2N2CCOC2=O)cc1` [2-(4-methoxyphenyl)-N-(2-(2-oxooxazolidin-3-yl)thiophen-3-yl)acetamide], for which the results for the IC50 against JNK3, against JNK1 and at JNK2 were greater than 10000 nM, greater than 50000 nM and greater than 50000 nM, respectively.

As for `COc1ccc(CC(=O)Nc2sccc2-c2nnn(C)n2)cc1` [2-(4-methoxyphenyl)-N-(3-(2-methyl-2H-tetrazol-5-yl)thiophen-2-yl)acetamide], the figures for the IC50 on JNK3, against JNK1 and at JNK2 were 100 to 10000 nM, 100 to 10000 nM and greater than 10000 nM, respectively.

As to `Cc1n[nH]c(-c2c(C)csc2NC(=O)CN2C(=O)CCc3ccccc32)n1` [N-(4-methyl-3-(3-methyl-1H-1,2,4-triazol-5-yl)thiophen-2-yl)-2-(2-oxo-3,4-dihydroquinolin-1(2H)-yl)acetamide], the IC50 against JNK3, against JNK1 and on JNK2 was less than 100 nM each time.

`O=C(Cn1c(=O)ccc2cnc(C(F)(F)F)cc21)Nc1scc(Cl)c1-c1nc[nH]n1` [N-(4-chloro-3-(1H-1,2,4-triazol-3-yl)thiophen-2-yl)-2-(2-oxo-7-(trifluoromethyl)-1,6-naphthyridin-1(2H)-yl)acetamide]: the IC50 at JNK3, at JNK1 and against JNK2 was less than 100 nM each time.

Consider `COc1ccc(CC(=O)Nc2sccc2-c2noc(C)n2)cc1` [2-(4-methoxyphenyl)-N-(3-(5-methyl-1,2,4-oxadiazol-3-yl)thiophen-2-yl)acetamide], for which the IC50 on JNK3, against JNK1 and against JNK2 was 100 to 10000 nM in each case.

For the compound `N#Cc1csc(NC(=O)Cn2c(=O)ccc3cc(C(F)(F)F)ccc32)c1-c1cncs1` [N-(4-cyano-3-(thiazol-5-yl)thiophen-2-yl)-2-(2-oxo-6-(trifluoromethyl)quinolin-1(2H)-yl)acetamide], the IC50 against JNK3, against JNK1 and against JNK2 was 100 to 10000 nM each time.

As to `O=C(Cn1c(=O)ccc2cc(C(F)(F)F)ccc21)Nc1ccsc1-c1cscn1` [2-(2-oxo-6-(trifluoromethyl)quinolin-1(2H)-yl)-N-(2-(thiazol-4-yl)thiophen-3-yl)acetamide], the results for the IC50 against JNK3, at JNK1 and on JNK2 were less than 100 nM, less than 100 nM and 100 to 10000 nM, respectively.

In the case of `O=C(Cc1cccc2ccccc12)Nc1ccsc1-c1ncn[nH]1` [N-(2-(1H-1,2,4-triazol-5-yl)thiophen-3-yl)-2-(naphthalen-1-yl)acetamide], the IC50 at JNK3, against JNK1 and against JNK2 was 100 to 10000 nM each time.

In the case of `O=C(Cn1c(=O)ccn2nccc12)Nc1scc(Br)c1-c1ncn[nH]1` [N-(4-bromo-3-(1H-1,2,4-triazol-5-yl)thiophen-2-yl)-2-(5-oxopyrazolo[1,5-a]pyrimidin-4(5H)-yl)acetamide], the IC50 against JNK3, on JNK1 and against JNK2 was less than 100 nM each time.

`O=C(Cn1c(=O)ccc2ccc(OC(F)(F)F)cc21)Nc1scc(Br)c1-c1ncn[nH]1` [N-(4-bromo-3-(1H-1,2,4-triazol-5-yl)thiophen-2-yl)-2-(2-oxo-7-(trifluoromethoxy)quinolin-1(2H)-yl)acetamide]: the IC50 against JNK3, against JNK1 and against JNK2 was less than 100 nM each time.

Turning to `COc1ccc(CC(=O)Nc2ccsc2-c2c[nH]c(C)n2)cc1` [2-(4-methoxyphenyl)-N-(2-(2-methyl-1H-imidazol-4-yl)thiophen-3-yl)acetamide], the results for the IC50 at JNK3, on JNK1 and against JNK2 were greater than 10000 nM, greater than 10000 nM and greater than 50000 nM, respectively.

With `O=C(Cc1cc(F)cc2ncccc12)Nc1scc(Br)c1-c1ncn[nH]1` [N-(4-bromo-3-(1H-1,2,4-triazol-5-yl)thiophen-2-yl)-2-(7-fluoroquinolin-5-yl)acetamide], the values for the IC50 on JNK3, on JNK1 and against JNK2 were less than 100 nM, less than 100 nM and 100 to 10000 nM, respectively.

For the compound `CC(C)c1n[nH]c(-c2c(Cl)csc2NC(=O)CN2C(=O)CCc3ncccc32)n1` [N-(4-chloro-3-(3-isopropyl-1H-1,2,4-triazol-5-yl)thiophen-2-yl)-2-(2-oxo-3,4-dihydro-1,5-naphthyridin-1(2H)-yl)acetamide], the IC50 against JNK3 was 100 to 10000 nM; at JNK1, less than 100 nM; against JNK2 it was 100 to 10000 nM.

`O=C(Cn1c(=O)ccc2cnccc21)Nc1scc(Br)c1-c1ncn[nH]1` [N-(4-bromo-3-(1H-1,2,4-triazol-5-yl)thiophen-2-yl)-2-(2-oxo-1,6-naphthyridin-1(2H)-yl)acetamide]: the IC50 at JNK3, at JNK1 and against JNK2 was less than 100 nM in each case.

As for `COc1ccc(CC(=O)Nc2ccsc2-n2cc(C)cn2)cc1` [2-(4-methoxyphenyl)-N-(2-(4-methyl-1H-pyrazol-1-yl)thiophen-3-yl)acetamide], the IC50 against JNK3, against JNK1 and against JNK2 was greater than 10000 nM each time.

Regarding `N#Cc1csc(NC(=O)Cn2c(=O)ccc3cc(C(F)(F)F)ccc32)c1-n1ccnn1` [N-(4-cyano-3-(1H-1,2,3-triazol-1-yl)thiophen-2-yl)-2-(2-oxo-6-(trifluoromethyl)quinolin-1(2H)-yl)acetamide], the IC50 on JNK3, on JNK1 and against JNK2 was 100 to 10000 nM each time.

With `Cc1n[nH]c(-c2sccc2NC(=O)Cc2ccc3c(c2)OCCO3)n1` [2-(2,3-dihydrobenzo[b][1,4]dioxin-6-yl)-N-(2-(3-methyl-1H-1,2,4-triazol-5-yl)thiophen-3-yl)acetamide], the IC50 on JNK3, against JNK1 and against JNK2 was 100 to 10000 nM each time.

Regarding `COc1ccc(CC(=O)Nc2ccsc2-c2nc(C(C)(C)C)n[nH]2)cc1` [N-(2-(3-tert-butyl-1H-1,2,4-triazol-5-yl)thiophen-3-yl)-2-(4-methoxyphenyl)acetamide], the IC50 on JNK3 is 100 to 10000 nM; against JNK1 it was 100 to 10000 nM; against JNK2, greater than 10000 nM.

For the origin of these results see patent publication US9796706B2, “Inhibitors of Jun N-terminal kinase” (IMAGO PHARMACEUTICALS, INC., priority 2009, dated 2017).
